In article PMC3682772 (MedChemComm, 2012):

Assays:
tubulin [1] = conditions: read-out: Inhibition of tubulin polymerization IC50; ref [34]; cited from earlier work
[2] = system: HUVECs capillary-like tubule network; assay: HUVEC endothelial tube disruption on Matrigel; format: cell-based, human; conditions: 2 h treatment of network pre-established over 16 h
tubulin [3] = assay: Inhibition of [3H]colchicine binding to tubulin; conditions: inhibitor 5 µM; 1 µM tubulin, 5 µM [3H]colchicine
[4] = system: NCI-H460 non-small cell lung cancer cell line; assay: Cytotoxicity, SRB assay, NCI-H460; conditions: Homo sapiens, NCI-H460, read-out: GI50 SRB assay NCI-H460
[5] = Solubility in water / D2O; format: physicochemical

COc1ccc(/C=C\c2cc(OC)c(OC)c(OC)c2)c(O)c1O [CA1, Combretastatin A-1]
IC50 (tubulin [1]): 1900 nM

COc1ccc(/C=C\c2cc(OC)c(OC)c(OC)c2)cc1O [CA4, combretastatin A-4, reference compound]
Tubule disruption ([2]; 0.01 µM): tubule disruption activity was detected | Inhibition of Colchicine binding (tubulin [3]): 100%

COc1ccc2c(c1N)CCCC=C2c1cc(OC)c(OC)c(OC)c1 [Compound 3]
GI50 [4]: 4.69 nM | Tubule disruption ([2]; 0.10 µM): Tubule disruption and cell rounding was observed | Tubule disruption ([2]; 1 µM): greatly increased

COc1ccc2c(c1N)CCCC=C2c1cc(OC)c(OC)c(OC)c1.Cl [Compound 16]
Solubility in water ([5]; hydrochloride salt): limited solubility in water | Amount completely dissolved ([5]; in approximately 1.0 mL of D2O (NMR study), clear solution took several days): approximately 3 mg
